Experimental data published in publication PMC9545147, “Impact of Sulfur Fumigation on Ginger: Chemical and Biological Evidence” (Journal of Agricultural and Food Chemistry, 2022).

Tests used:
[1] = MTT cell viability assay, HCC-1806; type: cell-based; settings: human, HCC-1806 breast cancer cells, HCC-1806, 100 μM
Method: (§1) HCT-116 colon cancer cells (Procell, Wuhan, China) were cultured in McCoy’s 5A medium (Gibco; Thermo Fisher Scientific Inc., MA, USA), Hep-G2 hepatocellular carcinoma cells (Procell, Wuhan, China) in Eagle’s minimum essential medium (EMEM, Gibco; Thermo Fisher Scientific Inc., MA, USA), and HCC-1806 breast cancer cells (Manassas, VA, USA) in RPMI-1640 medium (Gibco; Thermo Fisher Scientific Inc., MA, USA). All the mediums were supplemented with 10% fetal bovine serum and 1% penicillin–streptomycin (Thermo Fisher Scientific Inc., MA, USA) and cultured at 37 °C in a humidified incubator with 5% CO2.
(§2) Cell viability was determined by a 3-(4,5-dimethylthiazol-2-yl)-2,5-diphenyltetrazolium bromide (MTT) colorimetric assay. Each cell strain (6000 cells/well) was plated in 96-well microtiter plates and allowed to attach for 24 h at 37 °C and 5% CO2. Compound I or 6-shogaol (in dimethyl sulfoxide, DMSO) was added to the cell culture medium to desired final concentrations of 10, 40, and 100 μM. Final DMSO concentrations for control and treatments were 0.1%. There were six replicates of each condition. After the cells were cultured for 24 h, the medium was removed, and the cells were treated with 5 mg/mL MTT in fresh media. […] Absorbance values were derived from the plate reading at 490 nm on microplate readers (BioTek, Agilent).

[2] = test system: HCT-116 colon cancer cells; test: MTT cell viability assay, HCT-116; type: cell-based, human; settings: HCT-116, 10 μM, 24 h
Method: as §1
(§3) Cell viability was determined by a 3-(4,5-dimethylthiazol-2-yl)-2,5-diphenyltetrazolium bromide (MTT) colorimetric assay. Each cell strain (6000 cells/well) was plated in 96-well microtiter plates and allowed to attach for 24 h at 37 °C and 5% CO2. Compound I or 6-shogaol (in dimethyl sulfoxide, DMSO) was added to the cell culture medium to desired final concentrations of 10, 40, and 100 μM. Final DMSO concentrations for control and treatments were 0.1%. There were six replicates of each condition. After the cells were cultured for 24 h, the medium was removed, and the cells were treated with 5 mg/mL MTT in fresh media. After incubation for 4 h at 37 °C, the medium containing MTT was removed, 100 μL of DMSO was added to the wells, and the plates were shaken gently for 30 min at room temperature. Absorbance values were derived from the plate reading at 490 nm on microplate readers (BioTek, Agilent).

[3] = MTT cell viability assay, HCT-116; type: cell-based, human; settings: human, HCT-116 colon cancer cells; for viability at 24 h, 100 µM: HCT-116, 100 μM
Method: as §1, §3

[4] = Stability evaluation of samples in rat plasma (UPLC–QQQ–MS/MS method validation); type: in vitro ADME; settings: n=3; for Stability (Mean±SD), Postpreparative: rat plasma samples in autosampler for 8 h; for Stability (Mean±SD), Short Term / Stability (Mean±SD), Freeze and Thaw / Stability (Mean±SD), Long Term: rat plasma; for Stability (Mean±SD), Short Term: room temperature for 4 h; for Stability (Mean±SD), Freeze and Thaw: −20 °C for 24 h and thawed at room temperature, repeated three times; for Stability (Mean±SD), Long Term: −20 °C for 30 days
Method: The established UPLC–QQQ–MS/MS methods were validated according to the guidelines of the US Food and Drug Administration.[10] Linearity, limit of detection (LOD), lower limit of quantification (LLOQ), interday and intraday accuracy and precision, extraction recovery, and stability were measured. The calibration curve was replicated three times on the same day (intraday) and over 3 days (interday) to evaluate accuracy and precision. The correlation coefficient (r^2) of all calibration curves was at least 0.995, and the bias and coefficient of variation were kept within ±15%. Matrix effect and recovery evaluation: the matrix effect was given as the ratio of mean peak area for the post-extraction spiked samples (set 2, in plasma) to that of the standard solution samples (set 1, in MeOH). Recovery was quantified as the ratio of mean peak area of the pre-extraction spiked samples (set 3, standard with homogenate plasma) to that of the post-extraction spiked samples (set 2, in plasma). Stability: (1) freeze and thaw: samples were stored at −20 °C for 24 h and thawed at room temperature and repeated three times; (2) short term: samples were maintained at room temperature for 4 h; (3) long term: samples were kept at −20 °C for 30 days; (4) postpreparative: samples were maintained in an autosampler for 8 h. The stability of all the samples was limited to within ±15%, except for the LLOQ within ±20%.

[5] = Pharmacokinetics in rats after single oral (intragastric) administration; type: in vivo; settings: male, Sprague-Dawley, rat, 10 mg/kg, plasma, mean ± SD (n = 6); for CL/F: read-out: Cl/F_obs (apparent total body clearance) (converted); for MRT: read-out: MRT (mean residence time); for half-life: read-out: T1/2 (terminal half-life) (converted); for Vd/F: read-out: Vz/F_obs (apparent volume of distribution)
Method: A multiple reaction monitoring (MRM) mass acquisition method using a triple quadrupole (QQQ) mass spectrometer was used to determine compound I and 6-shogaol in rat plasma. Chromatographic separation was performed on an Agilent 1290 UPLC equipped with a binary pump with degasser (G4220A), a thermostatic column compartment (G1316C), and an autosampler (G4226A). […] The mobile phase used for the UPLC consisted of 0.1% formic acid in water (v/v) (A) and 0.1% formic acid in acetonitrile (v/v) (B). The elution gradient procedure started at 15% B, then 0–5 min, 15–75% B; 5–6 min, 75–100% B; 6–9 min, 100% B; 9–12 min, 15% B.
MS data were acquired with an Agilent 6460 QQQ mass spectrometer (G6460) equipped with a JetStream electrospray ion (ESI) source. The MRM parameters were as follows: for 6-gingesulfonic acid, negative mode; fragmentor at 120 V; ion pair m/z 357.1 → 80.9 (15 V), 357.1 → 275.1 (15 V). For 6-shogaol, positive mode; fragmentor at 80 V; ion pair m/z 277.2 → 137.0 (11 V), 277.2 → 259.1 (7 V).
The pharmacokinetic parameters were calculated using the PKSolver 2.0 add-in with a non-compartment model.[11],[12] The time to peak drug concentration (Tmax) means the time when plasma concentrations reached a maximum value (Cmax). The area under the concentration versus time curve from zero to the last sampling time (AUC0–t) and to infinity (AUC0–∞), apparent volume of distribution (Vz/F_obs), terminal half-life (T1/2), mean residence time (MRT), and apparent total body clearance (Cl/F_obs), were calculated under the PKSolver add-in. All the results were presented as the mean ± standard deviation (SD) of six independent experiments.

[6] = MTT cell viability assay, Hep-G2; type: cell-based; settings: human, Hep-G2 hepatocellular carcinoma cells, Hep-G2, 100 μM
Method: as §1, §2

[7] = Metabolite profiling in rat plasma, urine and feces by UPLC–QTOF–MS/MS; settings: rats; for biological samples in which metabolite was detected, 6-Shogaol treated: 10 mg/kg oral 6-shogaol, feces/urine/plasma
Method: A total of 12 adult male Sprague–Dawley rats (220–240 g) were purchased from the Chinese University of Hong Kong. The animals were kept in standard living conditions (room temperature 22 ± 1 °C, 12 h light/dark normal cycle, and constant humidity) at the animal laboratory of the School of Chinese Medicine, Hong Kong Baptist University with free access to food and water. All experimental protocols were approved by the Environmental Health and Safety Committee of Hong Kong Baptist University, Hong Kong (03/2017), and the procedures were in accordance with the guidelines of the Animal Care Ethics Committee of Hong Kong Baptist University and the Department of Health, Hong Kong Special Administrative Region. Before the experiment, the rats were kept for one week to acclimate to the new environment. The rats were randomly divided into two groups (n = 6) and fasted with water freely available. On the day of the experiment, by intragastric administration, one group received compound I and the other group received 6-shogaol. Both compounds were dissolved in 2% Tween 80 with an administration volume of less than 0.5 mL at a dose of 10 mg/kg. Then, rats were housed singly during the blood collection period (a total of 72 h). For each sample, 300–500 μL blood was collected from the eye canthus of each rat into tubes containing 1.5 mL EDTA. Samples were drawn at 0.0, 0.08, 0.25, 0.50, 0.75, 1.0, 2.0, 4.0, 6.0, 12, 24, 36, 48, 60, and 72 h. The blood samples were centrifuged at 4000 rpm for 15 min at 4 °C to obtain plasma. Urine and feces were collected every 1–2 h throughout the experiments. The blood, urine, and feces were collected before the intragastric administration as a blank sample. The rats were sacrificed by cervical spondylolisthesis after the experiment.
For metabolite identification and relative quantification, homogeneous biospecimen samples were combined during periods from 0 h to the time when plasmatic concentrations reached a maximum value (Tmax) after intragastric administration. 50 μL of each plasma or urine sample was added to 1.2 mL of MeOH to precipitate proteins. […]

| SMILES | viability at 24 h, 100 µM [1] [%] | cell viability [2] | viability at 24 h, 100 µM [3] [%] | Stability (Mean±SD), Postpreparative [4] [%] | Stability (Mean±SD), Short Term [4] [%] | Stability (Mean±SD), Freeze and Thaw [4] [%] | Stability (Mean±SD), Long Term [4] [%] | AUC(0-inf) [5] [ng·h/mL] | AUC(0-t) [5] [ng·h/mL] | Cmax [5] [ng/mL] | Tmax [5] [h] | CL/F [5] [mL/min/kg] | MRT [5] [h] | half-life [5] [h] | Vd/F [5] [L/kg] | viability at 24 h, 100 µM [6] [%] | viability at 24 h, 10 µM ([3]; HCT-116, 10 μM) [%] | biological samples in which metabolite was detected, 6-Shogaol treated [7] | metabolite concentration in urine and feces samples of 6-gingesulfonic acid group versus 6-shogaol group ([7]; 10 mg/kg oral) |
| --- | --- | --- | --- | --- | --- | --- | --- | --- | --- | --- | --- | --- | --- | --- | --- | --- | --- | --- | --- |
| CCCCCC(CC(=O)CCc1ccc(O)c(OC)c1)S(=O)(=O)O (centres unmarked) [6-gingesulfonic acid] | 64.6 | no significant change | 84.9 | 98.19±5.06 | 99.26±1.58 | 92.6±4.31 | 92.26±4.28 | 9580 ± 2070 | 8710 ± 1930 | 520 ± 138 | 5.33 ± 1.63 | 18 | 30.4 ± 1.83 | 20.8 ± 5.23 | 32.4 ± 9.94 | 84.2 |  |  |  |
| CCCCC/C=C/C(=O)CCc1ccc(O)c(OC)c1 [6-shogaol, reference compound] | 7.84 |  | 4.17 | 95.87±8.69 | 95.88±8.18 | 96.06±9.07 | 101.23±12.95 | 121 ± 36.3 | 76.8 ± 26.9 | 155 ± 39 | 0.14 ± 0.09 | 1470 | 1.02 ± 0.82 | 0.64 ± 0.53 | 71.9 ± 33 | 2.73 | 58.6 |  |  |
| CCCCCC=CC(O)CCc1ccc(O)c(OC)c1 (centres unmarked) [M1, 1-(4′-hydroxy-3′-methoxyphenyl)-4-decen-3-ol] |  |  |  |  |  |  |  |  |  |  |  |  |  |  |  |  |  | FUP |  |
| CCCCC/C=C/C(=O)CCc1ccc(OC2OC(C(=O)O)C(O)C(O)C2O)c(OC)c1 (stereo not drawn) [M3, s-6-shogaol-4′-O-β-glucuronide] |  |  |  |  |  |  |  |  |  |  |  |  |  |  |  |  |  | FUP |  |
| CCCCCC(CC(=O)CCc1ccc(O)c(OC)c1)SCC(NC(=O)CCC(N)C(=O)O)C(=O)NCC(=O)O (centres unmarked) [M4, 5-glutathionyl-6-shogaol] |  |  |  |  |  |  |  |  |  |  |  |  |  |  |  |  |  |  | lower concentrations |
